This is an account of results in patent publication US9486443B2, “Pharmaceutical composition for preventing or treating hypertriglyceridemia or hypertriglyceridemia-associated diseases” (priority 2011, dated 2016).

The subject of assay [1] is hypertriglyceridemia and hypercholesterolemia-induced animals. Nature of the assay: Evaluation of triglyceride-inhibitory activities in hypertriglyceridemia and hypercholesterolemia-induced animals. Type of assay: in vivo, New Zealand White rabbits. To be noted: oral, Formula 1 20 mg/kg/day, amlodipine 5 mg/kg/day; for average triglyceride concentration, 4 weeks: male rabbits on 0.5% cholesterol, 14% coconut oil diet, once per day for 4 weeks, fasted 12 to 16 hours. The text has this:
Male New Zealand White rabbits were used as a test animal. All animals, except for the G1 group animals (negative control group), were fed with an irradiation-sterilized hypertriglyceridemia and hypercholesterolemia diet, i.e., DYET #621082 (Purina #5321 chow with 0.5% cholesterol, 14% coconut oil & 2% Maltose Dextrin, Dyets, Inc., Bethlehem, Pa. 18017), which was purchased from Saeronbio Inc. In order to induce hypertriglyceridemia and hypercholesterolemia, the animals were supplied with the diet for more than 4 weeks. After collecting the blood samples from the animals, serum biochemical analyses were performed thereon. Animals showing significant changes in total cholesterol levels and triglyceride levels were selected, in comparison with the non-treated control group. The selected animals were divided into 4 groups on the basis of the total cholesterol levels and triglyceride levels, thereby all the groups having substantially equal average values in the total cholesterol levels and triglyceride levels. The test materials were dissolved in saline containing 0.5% carboxymethyl-cellulose sodium and 1% Tween 80 and then administered directly into the stomach using an oral syringe adapted with a latex catheter, once per day for 4 weeks. The test groups are as in the following Table 3.
The blood samples were collected through the jugular vein, from the animals at the day initiating the administration of the test material(s) (i.e., at the time of group-dividing, 0 week), and from the animals (which were fasted for 12 to 16 hours before collecting the blood) at 4 weeks after initiating the administration of the test material(s) (n=4-7).
The triglyceride concentrations in the hypertriglyceridemia and hypercholesterolemia-induced animals as in the above are presented in the following Table 4. The values in Table 4 represent average triglyceride concentrations (mg/dL) of the respective group.

The test system of assay [2] is hypercholesterolemia-induced animals. Nature of the assay: Evaluation of triglyceride-inhibitory activities in hypercholesterolemia-induced animals. Format: in vivo, New Zealand White rabbits. To be noted: male rabbits on 1% cholesterol diet. An excerpt:
Male New Zealand White rabbits were used as a test animal. All animals, except for the G1 group animals (negative control group, n=4), were fed with an irradiation-sterilized hypercholesterolemia diet, i.e., DYET #620007 (Purina #5321 chow with 1% cholesterol, Dyets, Inc., Bethlehem, Pa. 18017), which was purchased from Central Lab. Animal Inc. In order to induce hypercholesterolemia, the animals were supplied with the diet for more than 8 weeks. After collecting the blood samples from the animals, serum biochemical analyses were performed thereon. Animals having total cholesterol levels of approximately 870 mg/dL were selected as a hypercholesterolemia-induced animal. The test materials were dissolved in saline containing 0.5% carboxymethylcellulose sodium and 1% Tween 80 and then administered directly into the stomach using an oral syringe adapted with a latex catheter, once per day for 4 weeks. The test groups are as in the following Table 1. […] The values in Table 2 represent average triglyceride concentrations (mg/dL) of the respective group.

With `CCOC(=O)C1=C(COCCN)NC(C)=C(C(=O)OC)C1c1ccccc1Cl` (stereo not shown) [Amlodipine, reference compound], the “Percent inhibition of triglyceride in the blood” value in assay [1] (4 weeks, in comparison with the G2 group, once per day) amounted to 17.9%. In addition, the “average triglyceride concentration, 4 weeks” value in assay [1] is recorded as 268.0 mg/dL.

As usually defined, the inhibition is how much of the control response was suppressed. `COc1cc(F)c(C(C)C)cc1-c1ccc(C(F)(F)F)cc1CN1C(=O)O[C@H](c2cc(C(F)(F)F)cc(C(F)(F)F)c2)[C@@H]1C` [Compound of Formula 1, (4S,5R)-5-[3,5-bis(trifluoromethyl)phenyl]-3-({2-[4-fluoro-2-methoxy-5-(propan-2-yl)phenyl]-5-(trifluoromethyl)phenyl}methyl)-4-methyl-1,3-oxazolidin-2-one]: in assay [2] (baseline sample (0 week), before administration, group average), the “average triglyceride concentration, 0 week” value stood at 167.4 mg/dL. The “average triglyceride concentration, 2 weeks” value in assay [2] (oral, once per day, 2 weeks after initiating administration, fasted 12 to 16 hours, Formula 1 20 mg/kg/day, amlodipine 5, fenofibrate 30) came out at 255.8 mg/dL. The “average triglyceride concentration, 4 weeks” value in assay [2] (oral, once per day, 4 weeks after initiating administration, fasted 12 to 16 hours, Formula 1 20 mg/kg/day, amlodipine 5, fenofibrate 30) amounted to 356.7 mg/dL; in assay [1] it was 293.1 mg/dL. The inhibition at 20 mg/kg in assay [1] (Oryctolagus cuniculus, 672 h, 4 weeks, in comparison with the G2 group, once per day, read-out: Percent inhibition of triglyceride in the blood) was determined as 10.2%.
